Measured values: patent EP2265632B1, “CD4-RELATED POLYPEPTIDES AND METHODS OF USE” (priority 2008, dated 2009)

What was measured:
recombinant gp120BaL [1] = assay: Electrophoretic mobility shift assay (EMSA) with [14C]-acetylated peptides, scintillation counting of excised gp120; format: binding, HIV-1; conditions: for peptide associated with excised gp120: 5 µM gp120BaL, 500 µM radiolabeled peptide, no reducing agent
Description: Peptide N-terminal [^14C]-Acetylation. Hel-S, Hel-Cs and Hel-C were radioactively labeled by N-terminal acetylation according to the method of Fraenkel-Conrat and Colloms with modifications. Briefly, peptides were reconstituted in an ice cold saturated solution of sodium acetate (> 3 M) to a concentration of 5 mM. [^14C]-Acetic anhydride (specific activity 116 mCi/mmol, Amersham Biosciences, UK) was then added to 100 µl of the reconstituted peptide solution in two 1 µl installments over 15 minutes, and the labeling reactions were incubated for 2 hours on ice. After addition of the final acetic anhydride installment, the reaction concentrations of both peptide and acetic anhydride were 5 mM, and the samples contained 1% toluene and 500 nCi/µl of [^14C]. An equal volume (100 µl) of ice cold PBS (pH 7.4) was then added to each reaction. For buffer exchange and removal of unincorporated radiolabel, the [^14C]-labeled peptides were purified chromatographically using Sephadex G-10 spin columns (Sigma, UK) equilibrated in PBS (pH 7.4). The concentration of the purified labeled peptides was determined by measuring A280, and the labeling efficiencies were analysed by discontinuous PAGE and fluorescence autoradiography, as well as by liquid scintillation counting using Packard Tri-Carb 2200 Liquid Scintillation Analyzer. Labeled peptides were stored in 50 µl aliquots at -80°C.
Electrophoretic Mobility Shift Assay (EMSA). Peptide-gp120 binding reactions were set up in 50 µl and contained 5 µM of pure recombinant gp120BaL and 500 µM of radio labeled Hel-S, Hel-Cs or Hel-C in PBS (pH 7.4). Reactions were incubated at 25°C for 3 hours and then stopped by the addition of an equal volume (50 µl) of either reducing agent-free loading buffer (0.1 M Tris, 20% glycerol, 8% SDS and 0.02% Coomassie blue G-250) or the same buffer containing 1, 10 or 100 mM of DTT. The samples were incubated at 80°C for 3 minutes before loading on a 20 × 20 cm 6 - 20% gradient Tris/Tricine polyacrylamide gel, and were resolved at a constant 40 V for 16 hours at room temperature. After electrophoresis, the gel was rinsed thoroughly with H2O and then stained lightly by incubation in a solution containing 10% methanol, 10% acetic acid and 0.02% Coomassie Blue R-250 for 10 minutes with gentle shaking. The gel was rinsed with H20, and bands corresponding to gp120 were excised using a gel punch and placed in 1.5 ml microcentrifuge tubes. The gp120-containing polyacrylamide slices were solubilized by incubation at 37°C for 16 hours in 400 µl of a solution containing 30% H2O2 and 0.03% ammonium hydroxide. The dissolved polyacrylamide samples were added to 2 ml of Aquasol-2 scintillation cocktail (Perkin Elmer, USA), and radioactive emissions expressed as counts per minute (cpm) measured by scintillation counting.
Hel-C Binds gp120 through disulfide linkage on gp120. We adopted two independent approaches to evaluate the potential of Hel-C to bind recombinant gp120. First, we used an electrophoretic mobility shift assay (EMSA) to detect gp120-bound peptides following resolution of peptide/protein mixtures on denaturing gradient polyacrylamide gels. This method also enabled us to determine whether the mechanism of binding could be related to the establishment of disulphide bonds between the peptides and target gp120, by measuring the proportion of bound peptide in response to increasing doses of DTT. For detection, we decided to incorporate as small a label as possible into the peptide, so that steric effects of the labeling procedure would be minimal (such as would be the case with larger fluorescent/antigenic tags), and that the peptide would be able to adopt a secondary structure as close as possible to the R59-Q64 α-helix chain in CD4. We therefore labeled Hel-C and the control peptides Hel-S and Hel-Cs with [^14C]-acetic anhydride, which incorporated a single [^14C]-acetyl group on the peptide N-termini. […]

gp120BaL = assay: Epitope occlusion assay (ELISA): competition with anti-gp120 MAbs for immobilized gp120; format: binding, HIV-1; conditions: for effect on binding of MAb 654-30D to gp120: CD4bs-directed MAb 654-30D 0.2 nM; for effect on binding of MAb 654-30D to gp120 / effect on binding of MAb b12 to gp120 / effect on binding of MAb 2G12 to gp120 / effect on binding of MAb B4a1 to gp120: 2dCD4 0 to 1 µM or peptides 0 to 1 mM; for effect on binding of MAb b12 to gp120: CD4bs-directed MAb b12 0.2 nM; for effect on binding of MAb 2G12 to gp120: CD4bs-independent MAb 2G12 0.2 nM; for effect on binding of MAb B4a1 to gp120: CD4bs-independent MAb F425 B4a1 (V3 loop) 0.2 nM
[2] = Peptide analyses: oxidation state by discontinuous Tris/Tricine PAGE with densitometry; format: physicochemical; conditions: for peptide existing as monomers: densitometric analysis; for peptide existing as monomers / oxidation state of the peptide: no reducing agent; for oxidation state of the peptide: reconstituted in PBS (pH 7.4), Tris/Tricine PAGE
Description: Peptide analyses. Synthetic 7-mer peptides Hel-S (RRSLWDQ, SEQ ID NO:10), Hel-Cs (DLRQCWR, SEQ ID NO:27) and Hel-C (RRCLWDQ, SEQ ID NO:2) were analysed by discontinuous PAGE according to the method of Schagger and von Zagau with modifications. Briefly, 2.5 µg of each lyophilized peptide reconstituted in pure H2O was mixed with a reducing agent-free loading buffer (0.1 M Tris, 20% glycerol, 8% SDS and 0.02% Coomassie blue G-250), incubated at 80°C for 3 minutes and loaded onto a 17.5% Tris/Tricine gel. Samples were resolved at 20 mAper gel until stacked (1-2 hours) and at 35 mA for 16 hours through the resolving gel. The gel was fixed by incubation in a 5% glutaraldehyde solution for 1 hour and then stained with Coomassie Blue-R250. Peptide monomer/dimer ratios were calculated by densitometry using Quantity One® software (BioRad, Hercules, CA (USA)). To evaluate the redox states of cysteine-containing peptides further, reduced Glutathione (GSH) (Sigma, UK), β-mercaptoethanol and dithiothreitol (DTT) were included in the sample loading buffer at concentrations ranging from 0 to 400 mM, and the samples were resolved and analysed as described above.
Peptide Analyses. We analysed the oxidation states of the synthetic peptides Hel-S, Hel-Cs and Hel-C following reconstitution in PBS (pH 7.4) by high resolution Tris/Tricine PAGE (resolving buffer pH = 8.0). As expected, in aqueous solution at close to neutral pH, the wild-type CD4-mimetic peptide Hel-S consisted of a pure monomer of molecular weight equal to approximately 1 kDa (predicted Mw = 976 g/mol). […] The latter are evident as bands of approximately 2 kDa, which presumably result from intermolecular disulfide bond formation. […] We then treated Hel-C with the thiol-containing reducing compounds β-mercaptoethanol (β-ME) and 1,4-dithiothreitol (DTT) to determine relative effects on cysteine oxidation in this peptide.

recombinant gp120BaL [3] = assay: Surface plasmon resonance (Biacore 3000) on immobilized gp120; format: binding, HIV-1
Description: Surface Plasmon Resonance. All surface Plasmon resonance (SPR) experiments were performed on a BIA3000 optical biosensor (Biacore Inc., Uppsala, Sweden). Recombinant gp120BaL was immobilized on CM5 sensor chips by amine coupling according to the manufacturer's instructions. Briefly, a solution of 0.2 M EDC and 0.05 M NHS was used to activate carboxyl groups on the sensor surface at a flow rate of 5 µL/min for 10 minutes. Recombinant gp120BaL, dissolved in 100 mM sodium acetate buffer (pH 5.5) to a final concentration of 0.05 µM, was passed over the sensor chip surface at a flow rate of 5 µL/min until an immobilization level of 5000 RU was achieved. Excess carboxyl groups were capped by injection of 1 M ethanolamine (pH 8.0) at a flow rate of 5 µL/min for 5 minutes. Unbound ligand was removed by injecting 10 mM glycine (pH 2.5) at a flow rate of 5 µL/min for 2 minutes. In all experiments, the neighbouring flow cell was treated as mentioned above without the immobilization of gp120BaL, and this served as a reference surface. Prior to all experiments, the functionalities of the gp120 surfaces were tested by binding sCD4 at 500 nM in HEPES-buffered saline supplemented with 0.15 M NaCl (HBS-N, pH7.4). Analyte solutions were prepared in HBS-N at least 30 minutes prior to injection. All binding experiments were performed in duplicate at 25°C. For peptide binding analyses, increasing concentrations of peptide (from 0 to 500 µM) were passed over the surface at a flow rate of 5 µL/min, with a 5 minute association phase and a 6 minute dissociation phase. Surfaces were regenerated with a 20 mM sodium hydroxide (NaOH) solution between consecutive peptide analyses. The integrity of the surfaces was tested after each regeneration for sCD4 binding. Buffer injections and control surface binding were subtracted for all reported data.
Recombinant gp120BaL was immobilized on CM5 sensorchips and exposed to increasing concentrations of Hel-S, Hel-Cs or Hel-C.
The reasons for the slight difference are likely to be related to the different target gp120s used in these studies. […] Our data thus fit to a direct binding model consistent with 1:1 stoichiometry, and closely match previously published results.

Substance	peptide associated with excised gp120 (recombinant gp120BaL [1])	effect on binding of MAb 654-30D to gp120 (gp120BaL)	effect on binding of MAb b12 to gp120 (gp120BaL)	effect on binding of MAb 2G12 to gp120 (gp120BaL)	effect on binding of MAb B4a1 to gp120 (gp120BaL)	peptide existing as monomers [2]	oxidation state of the peptide [2]	further results
DLRQCWR [Hel-Cs]	small amount	did not compete	did not compete	did not compete	did not compete	less than 10%	mixture of monomers and dimers	effect on binding of MAb b12 to gp120 (gp120BaL; listed as scrambled): does not
RINNIPWSEAMM [12p1, reference compound]								calculated Rmax (recombinant gp120BaL [3]; 5000 RU gp120BaL surface): approximately 67 RU; amount bound (recombinant gp120BaL [3]; just over 100 µM peptide, 5000 RU gp120 BaL surface): approximately 45 RU
RRCLWDQ [Hel-C, linear CD4-mimetic 7-mer peptide, R58 to Q64 of mature CD4 with S60C mutation]	significant quantity	dose-dependent inhibitory effect	dose-dependent inhibitory effect	did not compete	did not compete	less than 10%	mixture of monomers and dimers	amount of bound peptide relative to the amount bound in the absence of any reducing compound (recombinant gp120BaL [1]; 100 mM DTT): 10%; mode of binding to gp120 (EMSA) (recombinant gp120BaL [1]; C14-radioactively labeled peptide, denaturing gels, absence and presence of reducing agents): binds covalently; amount of Hel-C bound to gp120 (recombinant gp120BaL [1]; increasing amounts of DTT added): decreased; effect on binding of MAb b12 to gp120 (gp120BaL; listed as S85C): appear to block; relief of Hel-C-mediated inhibition of b12-gp120 binding (gp120BaL; peptide pre-treated with 20 mM DTT): complete; relief of Hel-C-mediated inhibition of b12-gp120 binding (gp120BaL; peptide pre-treated with 20 mM β-mercaptoethanol): only partially rescued b12 binding; effect of reducing compounds on the amount of 2G12 bound in the presence or absence of peptide (gp120BaL; peptide pre-treated with 20 mM β-mercaptoethanol or DTT): no effect; proportion of Hel-C monomer ([2]; DTT at 10 mM): 50%; effect of DTT on cysteine oxidation ([2]; DTT at 200 mM): completely abolished the ability of the peptide to oxidize; effect of β-ME on cysteine oxidation ([2]; β-ME at 200 mM): unable to monomerize the peptide completely; mode of binding to gp120 (SPR binding kinetics) (recombinant gp120BaL [3]; both monomeric and trimeric gp120 proteins): binds covalently; binding to recombinant gp120 (recombinant gp120BaL [3]; conclusion from EMSA and SPR collectively): able to bind recombinant gp120
RRSLWDQ [Hel-S]	no detectable	did not compete	did not compete	did not compete	did not compete		pure monomer	effect on binding of MAb b12 to gp120 (gp120BaL; listed as native): does not
